Reference: patent publication US7399771B2, “Piperidine derivatives as CCR5 inhibitors” (Novartis AG, priority 2002, dated 2008)

How the values were obtained:
Human CCR5 [1] = molecular target: T1, Human CCR5 (Homo sapiens, UniProt P51681); assay: CCR5 membrane binding assay ([I-125]MIP-1α radioligand, membranes of CHO K1 transfectants); details: membranes of CHO K1 cells transfected with human CCR5; ligand 125-I MIP-1α
T1 construct: expressed in transfected cells
Protocol: a) CCR5 Membrane Binding Assay
Human CCR5 is used to generate stable transfectants in CHO K1 cells. Membranes prepared from these CCR5 transfectants are used in a radioligand binding assay using 125-I MIP-1α as a ligand and the compounds of formula I are tested for inhibitory activity.

Human CCR5 [2] = molecular target: T1, Human CCR5; assay: CCR5 functional assay - Ca2+ mobilization in CHO K1 CCR5 transfectants; format: cell-based
Protocol: b) CCR5 Functional Assay—Ca^2+ Mobilization Human CCR5 is used to generate stable transfectants in CHO K1 cells. These CCR5 transfectants are used for assessing Ca^2+ mobilization in response to stimulation by the CCR5 ligands MIP-1α, MIP-1β, HCC-1(9-74) or RANTES. For the assay the cells are loaded with a Ca^2+-sensitive fluorochrome (Fluo3 or Fluo4). Ligand concentrations between 0.01-100 nM are used to induce Ca^2+ mobilization which is monitored in a fluorometer with appropriate settings. To assess the activity of the compounds to be tested, a baseline fluorescence reading is taken after which the compounds at the desired concentration are added to the cells and fluorescence is further recorded for a certain time to assess whether compounds show agonistic effects. Next the agonist is added to the mixture and fluorescence monitored. The inhibition of Ca^2+ flux in the presence of the compounds to be tested is calculated from the inhibition of maximal fluorescence induced by the agonist. IC50 values are calculated from dose-response curves obtained with the compounds.

T1 sequence (P51681 whole entry): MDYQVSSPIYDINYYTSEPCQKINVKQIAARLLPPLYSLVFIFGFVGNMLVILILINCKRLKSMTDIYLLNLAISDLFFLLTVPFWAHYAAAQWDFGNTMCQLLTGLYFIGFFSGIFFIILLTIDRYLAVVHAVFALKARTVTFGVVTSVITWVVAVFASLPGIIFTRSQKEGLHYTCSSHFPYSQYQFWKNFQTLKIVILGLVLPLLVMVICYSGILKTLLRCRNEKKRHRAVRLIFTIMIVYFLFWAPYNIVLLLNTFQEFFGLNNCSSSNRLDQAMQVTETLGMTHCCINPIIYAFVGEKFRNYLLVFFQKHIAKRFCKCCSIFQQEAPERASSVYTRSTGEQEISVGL

For Cc1nc(CN(c2ccc(Cl)cc2)C2CCN(C3(C)CCN(C(=O)c4c(C)cccc4C)CC3)CC2)cs1 [Example 32], the IC50 (Human CCR5 [1]) was 0.5 nM.
Compound Cc1cc[n+]([O-])c(C)c1C(=O)N1CCC(C)(N2CCC(N(Cc3ccsc3)c3ccccc3)CC2)CC1 [Example 36, (2,4-Dimethyl-1-oxy-pyridin-3-yl)-[4′-methyl-4-(phenyl-thiophen-3-ylmethyl-amino)-[1,4′]bipiperidinyl-1′-yl]-methanone] has an IC50 (Human CCR5 [2]; CHO K1 CCR5 transfectants, Fluo3 or Fluo4, agonist MIP-1α, MIP-1β, HCC-1(9-74) or RANTES, read-out: IC50, inhibition of Ca2+ flux) of 8 nM.
Work on Cc1cc[n+]([O-])c(C)c1C(=O)N1CCC(C)(N2CCC(N(c3ccccc3)c3ccccn3)CC2)CC1 [Example 12, (2,4-Dimethyl-1-oxy-pyridin-3-yl)-[4′-methyl-4-(phenyl-pyridin-2-yl-amino)-[1,4′]bipiperidinyl-1′-yl]methanone] yielded an IC50 (Human CCR5 [2]) of 29 nM.
